Test system: ALS7 (C9orf72) cell-derived motor neurons
Assay: RNA foci inhibitory activity (FISH with Cy3 probe, high-content analysis)
Assay type: cell-based, human
Conditions: one day after addition, vs DMSO
Source text: Using ALS7 (C9orf72) cell line described in K. Imamura et al, Science Translational Medicine 2017, 9, eaaf3962, the effect of the compound used in the present invention on RNA foci was examined. The cell line is stable cell line prepared by introducing the tetracycline-induced Lhx3, Ngn2 and Isl1 genes into iPS cell lines established from a familial ALS patient with abnormal expansion of the G4C2 repeat of the C9orf72 gene. Therefore, ALS7 (C9orf72) cell is an ALS cell model that rapidly (within about 7 days) differentiates into motor neurons when tetracycline or a derivative thereof is added to the medium, and after differentiation, spontaneously goes on to cell death (see the above documents). […] ALS7 (C9orf72) cells were cultured on feeder cells (mitomycin-treated SNL cells) using an iPS cell maintenance medium consisting of Primate ES Cell medium (ReproCell, […]), 4 ng/ml hbFGF (Wako, 060-04543), 50 μg/ml G418 (Nacalai, 09380-86) and Penicillin-Streptomycin (Thermo Fisher Scientific, 15140-122). The method for seeding ALS7 (C9orf72) cells on an assay plate is as follows. Matrigel (BD Falcon, D2650) was diluted 20-fold with an assay medium consisting of DMEM/F-12 (1:1) (Thermo Fisher Scientific, 11330-057), N2 supplement (Thermo Fisher Scientific, 17502-048), Penicillin-Streptomycin (Thermo Fisher Scientific, 15140-122), 10 ng/ml recombinant human BDNF (PeproTech, 450-02), 10 ng/ml recombinant human GDNF (PeproTech, 450-10), 10 ng/ml recombinant human NT-3 (PeproTech, 450-03), 1 μM Retinoic acid (Sigma, R2625), 1 μg/ml Doxycycline (Clontech, 631311), 1 μM SAG (Enzo life sciences, ALX-270-426-M001) and 10 μ[…] (Wako, 253-00513), and then a 384-well plate (CellCarrier-384 Ultra, PerkinElmer, 6057300) was coated with the diluted solution. The ALS7 (C9orf72) cells were then suspended in the assay medium, and seeded on the matrigel-coated assay plate at 1×10^4 cells per well. The fluorescent staining method of RNA foci in motor neurons differentiated from ALS7 (C9orf72) cells is as follows. For the ALS7 (C9orf72) cells seeded on the assay plate according to the method described in the previous section, the assay medium containing no Y-27632 was added to the plate four days after seeding, and the cells were cultured. Seven days after seeding, the assay medium (Retinoic Acid, Doxycycline, SAG, Y-27632-free) containing the test compound at a predetermined concentration was added to the plate by medium exchange, and one day after addition of the test compound, PFA (Wako, 163-20145) was added to the plate to fix the cells. After washing with PBS (Wako, 045-29795) was repeated three times, ice-cold methanol (Wako, 131-01826) was added to the plate, and the plate was allowed to stand for 10 minutes at room temperature. DNA probe [[NT] ID NO:1), SIGMA genosys, custom synthesis] was denatured at 80° C. for 75 sec, prepared to 2 μg/μL in a hybri buffer consisting of 50% formamide (Wako, 066-02301), 2×SSC (Nippon Gene, 319-90015), 50 mM sodium phosphate (TEKNOVA, […]), 10% Dextran sulfate (SIGMA, […]), 0.1 mg/mL yeast tRNA ([…], 15401029) and RNase free water (QIAGEN, 129112), and added to the plate, and the plate was allowed to stand at 37° C. for 16 to 24 hrs to bind the probe to the RNA foci. A wash buffer consisting of 50% formamide, 1×SSC and RNase free water was added to the plate, and the plate was allowed to stand at 37° C. for 30 minutes, followed by washing with PBS. Hoechst (invitrogen, H3569) diluted 5000-fold with by PBS was added to the plate, and the plate was allowed to stand for 20 minutes at room temperature to stain the cell nuclei, followed by washing with PBS. The RNA foci in the cell nuclei were detected by analyzing the above treated plate (measuring Cy3 fluorescence) with a high-content analyzer. The high-content analyzer used was Opera Phenix from PerkinElmer. […] The method for detecting the activity of the test compound is as follows.

| Structure (SMILES) | RNA foci inhibitory activity % (1 μM test compound) [%] | RNA foci inhibitory activity % (3 μM test compound) [%] | RNA foci inhibitory activity % (10 μM test compound) [%] |
| --- | --- | --- | --- |
| COc1cc(F)ccc1-c1ncnc(Nc2cccc(CS(C)(=N)=O)c2)n1 (stereo not drawn) [Compound No. 1, 4-(4-fluoro-2-methoxyphenyl)-N-{3-[(S-methanesulfonimidoyl)methyl]phenyl}-1,3,5-triazin-2-amine] | 48 | 58 | 46 |
| COc1ccccc1-c1ncnc(Nc2cccc(CS(N)(=O)=O)c2)n1 [Compound No. 2, 1-(3-{[4-(2-methoxyphenyl)-1,3,5-triazin-2-yl]amino}phenyl)methanesulfonamide] | 20 | 49 | 55 |
| COc1cc(Cl)ccc1-c1ncnc(Nc2cccc(CS(N)(=O)=O)c2)n1 [Compound No. 3, 1-(3-{[4-(4-chloro-2-methoxyphenyl)-1,3,5-triazin-2-yl]amino}phenyl)methanesulfonamide] | 16 | 55 | 51 |
| NS(=O)(=O)Cc1cccc(Nc2ncnc(-c3ccccc3OCc3ccccc3)n2)c1.O=C(O)C(F)(F)F [Compound No. 4a, 1-[3-({4-[2-(benzyloxy)phenyl]-1,3,5-triazin-2-yl}amino)phenyl]methanesulfonamide trifluoroacetate] | 50 | 45 | 45 |
| NS(=O)(=O)Cc1cccc(Nc2ncnc(-c3ccccc3OCc3ccccc3)n2)c1 [Compound No. 4b, 1-[3-({4-[2-(benzyloxy)phenyl]-1,3,5-triazin-2-yl}amino)phenyl]methanesulfonamide] | 52 | 41 | 47 |
| CS(=N)(=O)Cc1cccc(Nc2ncnc(-c3ccccc3OCc3ccc(Cl)c(Cl)c3)n2)c1 (stereo not drawn) [Compound No. 5, 4-{2-[(3,4-dichlorophenyl)methoxy]phenyl}-N-{3-[(S-methanesulfonimidoyl)methyl]phenyl}-1,3,5-triazin-2-amine] | 61 | 44 | 50 |
| CCOC(=O)N=S(C)(=O)Cc1cccc(Nc2ncnc(-c3cccc4c3OCCO4)n2)c1 (stereo not drawn) [Compound No. 6, ethyl {[(3-{[4-(2,3-dihydro-1,4-benzodioxin-5-yl)-1,3,5-triazin-2-yl]amino}phenyl)methyl](methyl)oxo-λ^6-sulfanylidene}carbamate] | 62 | 48 | 48 |
| CCOC(=O)N=S(C)(=O)Cc1cccc(Nc2ncnc(-c3cccc4c3OCC4)n2)c1 (stereo not drawn) [Compound No. 7, ethyl {[(3-{[4-(2,3-dihydro-1-benzofuran-7-yl)-1,3,5-triazin-2-yl]amino}phenyl)methyl](methyl)oxo-λ^6-sulfanylidene}carbamate] | 47 | 55 | 43 |
